According to patent publication US9469650B2, “Melampomagnolide B derivatives” (BOARD OF TRUSTEES OF THE UNIVERSITY OF ARKANSAS, priority 2013, dated 2016):

How the values were obtained:
ACHN = experiment: panel of 60 human tumor cell lines, growth inhibition (Renal Cancer)
MCF7 = experiment: panel of 60 human tumor cell lines, growth inhibition (Breast Cancer); conditions: MCF7
OVCAR-8 = experiment: panel of 60 human tumor cell lines, growth inhibition (Ovarian Cancer); conditions: OVCAR-8
U251 = experiment: panel of 60 human tumor cell lines, growth inhibition (CNS Cancer); conditions: U251
HCC-2998 = experiment: panel of 60 human tumor cell lines, growth inhibition (Colon Cancer); conditions: HCC-2998
MDA-MB-435 = experiment: panel of 60 human tumor cell lines, growth inhibition (Melanoma); conditions: MDA-MB-435
NCI-H460 = experiment: panel of 60 human tumor cell lines, growth inhibition (Non-Small Cell Lung Cancer); conditions: NCI-H460
SK-MEL-5 = experiment: panel of 60 human tumor cell lines, growth inhibition (Melanoma); conditions: 8K-MEL-5
NCI-H226 = experiment: panel of 60 human tumor cell lines, growth inhibition (Non-Small Cell Lung Cancer); conditions: NCI-H226
M14 = experiment: panel of 60 human tumor cell lines, growth inhibition (Melanoma); conditions: M14

C=C1C(=O)O[C@H]2[C@H]1CC/C(COC(=O)N1CCN(C)CC1)=C\CC[C@@]1(C)O[C@@H]21 [JVM 2-44]
Percent Growth (ACHN; Log10 Concentration −5.0): 19%
Mean Optical Densities (ACHN; Log10 Concentration −6.0): 1.883
Percent Growth (ACHN; Log10 Concentration −6.0): 93%
Mean Optical Densities (ACHN; Log10 Concentration −7.0): 1.961
Percent Growth (ACHN; Log10 Concentration −7.0): 9B
Mean Optical Densities (ACHN; Log10 Concentration −8.0): 2.010
Percent Growth (ACHN; Log10 Concentration −8.0): 101%
GI50 (MCF7): 3.14 µM
TGI (MCF7): 1.44E−5
Mean Optical Densities (MCF7; Log10 Concentration −4.0): 0.116
Percent Growth (MCF7; Log10 Concentration −4.0): −68%
Mean Optical Densities (MCF7; Log10 Concentration −5.0): 0.561
Percent Growth (MCF7; Log10 Concentration −5.0): 13%
Mean Optical Densities (MCF7; Log10 Concentration −6.0): 1.725
Percent Growth (MCF7; Log10 Concentration −6.0): 87%
Mean Optical Densities (MCF7; Log10 Concentration −7.0): 1.666
Percent Growth (MCF7; Log10 Concentration −7.0): 83%
Mean Optical Densities (MCF7; Log10 Concentration −8.0): 1.767
Percent Growth (MCF7; Log10 Concentration −8.0): 89%
GI50 (OVCAR-8): 11.1 µM
TGI (OVCAR-8): 3.06E−5
Mean Optical Densities (OVCAR-8; Log10 Concentration −4.0): 0.184
Percent Growth (OVCAR-8; Log10 Concentration −4.0): −61%
Mean Optical Densities (OVCAR-8; Log10 Concentration −5.0): 1.385
Percent Growth (OVCAR-8; Log10 Concentration −5.0): 59%
Mean Optical Densities (OVCAR-8; Log10 Concentration −6.0): 1.997
Percent Growth (OVCAR-8; Log10 Concentration −6.0): 98%
Mean Optical Densities (OVCAR-8; Log10 Concentration −7.0): 2.055
Percent Growth (OVCAR-8; Log10 Concentration −7.0): 102%
Mean Optical Densities (OVCAR-8; Log10 Concentration −8.0): 2.052
Percent Growth (OVCAR-8; Log10 Concentration −8.0): 101%
GI50 (U251): 18.7 µM
TGI (U251): 4.08E−5
Mean Optical Densities (U251; Log10 Concentration −4.0): 0.206
Percent Growth (U251; Log10 Concentration −4.0): −58%
Mean Optical Densities (U251; Log10 Concentration −5.0): 1.893
Percent Growth (U251; Log10 Concentration −5.0): 90%
Mean Optical Densities (U251; Log10 Concentration −6.0): 2.002
Percent Growth (U251; Log10 Concentration −6.0): 97%
Mean Optical Densities (U251; Log10 Concentration −7.0): 2.003
Percent Growth (U251; Log10 Concentration −7.0): 97%
Mean Optical Densities (U251; Log10 Concentration −8.0): 2.013
Percent Growth (U251; Log10 Concentration −8.0): 98%
GI50 (HCC-2998): 17.5 µM
TGI (HCC-2998): 3.55E−5
Mean Optical Densities (HCC-2998; Log10 Concentration −4.0): 0.178
Percent Growth (HCC-2998; Log10 Concentration −4.0): −73%
Mean Optical Densities (HCC-2998; Log10 Concentration −5.0): 1.871
Percent Growth (HCC-2998; Log10 Concentration −5.0): 90%
Mean Optical Densities (HCC-2998; Log10 Concentration −6.0): 2.049
Percent Growth (HCC-2998; Log10 Concentration −6.0): 103%
Mean Optical Densities (HCC-2998; Log10 Concentration −7.0): 1.999
Percent Growth (HCC-2998; Log10 Concentration −7.0): 99%
Mean Optical Densities (HCC-2998; Log10 Concentration −8.0): 1.968
Percent Growth (HCC-2998; Log10 Concentration −8.0): 97%
GI50 (MDA-MB-435): 7.64 µM
TGI (MDA-MB-435): 2.27E−5
Mean Optical Densities (MDA-MB-435; Log10 Concentration −4.0): 0.109
Percent Growth (MDA-MB-435; Log10 Concentration −4.0): −80%
Mean Optical Densities (MDA-MB-435; Log10 Concentration −5.0): 1.343
Percent Growth (MDA-MB-435; Log10 Concentration −5.0): 44%
Mean Optical Densities (MDA-MB-435; Log10 Concentration −6.0): 2.253
Percent Growth (MDA-MB-435; Log10 Concentration −6.0): 94%
Mean Optical Densities (MDA-MB-435; Log10 Concentration −7.0): 2.240
Percent Growth (MDA-MB-435; Log10 Concentration −7.0): 93%
Mean Optical Densities (MDA-MB-435; Log10 Concentration −8.0): 2.396
Percent Growth (MDA-MB-435; Log10 Concentration −8.0): 102%
GI50 (NCI-H460): 20.3 µM
TGI (NCI-H460): 5.67E−5
Mean Optical Densities (NCI-H460; Log10 Concentration −4.0): 0.202
Percent Growth (NCI-H460; Log10 Concentration −4.0): −28%
Mean Optical Densities (NCI-H460; Log10 Concentration −5.0): 2.401
Percent Growth (NCI-H460; Log10 Concentration −5.0): 84%
Mean Optical Densities (NCI-H460; Log10 Concentration −6.0): 2.741
Percent Growth (NCI-H460; Log10 Concentration −6.0): 98%
Mean Optical Densities (NCI-H460; Log10 Concentration −7.0): 2.825
Percent Growth (NCI-H460; Log10 Concentration −7.0): 101%
Mean Optical Densities (NCI-H460; Log10 Concentration −8.0): 2.830
Percent Growth (NCI-H460; Log10 Concentration −8.0): 101%
GI50 (SK-MEL-5): 16.1 µM
TGI (SK-MEL-5): 3.06E−5
Mean Optical Densities (SK-MEL-5; Log10 Concentration −4.0): 0.067
Percent Growth (SK-MEL-5; Log10 Concentration −4.0): −91%
Mean Optical Densities (SK-MEL-5; Log10 Concentration −5.0): 2.878
Percent Growth (SK-MEL-5; Log10 Concentration −5.0): 87%
Mean Optical Densities (SK-MEL-5; Log10 Concentration −6.0): 3.118
Percent Growth (SK-MEL-5; Log10 Concentration −6.0): 97%
Mean Optical Densities (SK-MEL-5; Log10 Concentration −7.0): 3.182
Percent Growth (SK-MEL-5; Log10 Concentration −7.0): 100%
Mean Optical Densities (SK-MEL-5; Log10 Concentration −8.0): 3.116
Percent Growth (SK-MEL-5; Log10 Concentration −8.0): 97%
GI50 (NCI-H226): 12.4 µM
TGI (NCI-H226): 3.73E−5
Mean Optical Densities (NCI-H226; Log10 Concentration −4.0): 0.601
Percent Growth (NCI-H226; Log10 Concentration −4.0): −45%
Mean Optical Densities (NCI-H226; Log10 Concentration −5.0): 2.002
Percent Growth (NCI-H226; Log10 Concentration −5.0): 60%
Mean Optical Densities (NCI-H226; Log10 Concentration −6.0): 2.540
Percent Growth (NCI-H226; Log10 Concentration −6.0): 95%
Mean Optical Densities (NCI-H226; Log10 Concentration −7.0): 2.533
Percent Growth (NCI-H226; Log10 Concentration −7.0): 94%
Mean Optical Densities (NCI-H226; Log10 Concentration −8.0): 2.561
Percent Growth (NCI-H226; Log10 Concentration −8.0): 96%
GI50 (M14): 8.89 µM
TGI (M14): 2.58E−5
Mean Optical Densities (M14; Log10 Concentration −4.0): 0.178
Percent Growth (M14; Log10 Concentration −4.0): −68%
Mean Optical Densities (M14; Log10 Concentration −5.0): 1.229
Percent Growth (M14; Log10 Concentration −5.0): 48%
Mean Optical Densities (M14; Log10 Concentration −6.0): 1.877
Percent Growth (M14; Log10 Concentration −6.0): 94%
Mean Optical Densities (M14; Log10 Concentration −7.0): 1.848
Percent Growth (M14; Log10 Concentration −7.0): 91%
Mean Optical Densities (M14; Log10 Concentration −8.0): 1.953
Percent Growth (M14; Log10 Concentration −8.0): 99%
